≈ marks a conversion by molar mass, not a printed value.
Legend:
L1210 cells [1] = assay: Cytotoxicity, protein synthesis in L1210 cells; type: cell-based; details: Mus musculus; for IC50: read-out: ID50, protein synthesis
Text: (§1) The results are shown below.

L1210 cells [2] = assay: Cytotoxicity, RNA synthesis in L1210 cells; type: cell-based; details: Mus musculus, read-out: ID50, RNA synthesis
Text: as §1

Coryn. bovis 1810 = assay: Antimicrobial activity, MIC by agar dilution method; type: cell-based; details: Corynebacterium bovis; Coryn. bovis 1810, agar dilution method
Text: (§2) The antimicrobial activity of ditrisarubicin according to the present invention was examined. It is expressed as minimum inhibitory concentration (MIC) determined by the agar dilution method.

[3] = system: M. lysodeikticus IFO 3333; assay: as above; type: cell-based; details: Micrococcus luteus, IFO3333; M. lysodeikticus IFO 3333, agar dilution method
Text: as §2

E. coli NIHJ = assay: as above; type: cell-based; details: Escherichia coli
Text: as §2

S. aureus MS9610 = assay: as above; type: cell-based; details: Staphylococcus aureus
Text: as §2

B. subtilis PCI 219 = assay: as above; type: cell-based; details: Bacillus subtilis, PCI219; B. subtilis PCI 219, agar dilution method
Text: as §2

S. aureus Smith = assay: as above; type: cell-based; details: Staphylococcus aureus
Text: as §2

Pseu. aeruginosa A3 = assay: as above; type: cell-based; details: Pseudomonas aeruginosa
Text: as §2

S. aureus MS8710 = assay: as above; type: cell-based; details: Staphylococcus aureus
Text: as §2

Prot. vulgaris OX19 = assay: as above; type: cell-based; details: Proteus vulgaris
Text: as §2

Serr. marcessens = assay: as above; type: cell-based
Text: as §2

B. cereus ATCC 10702 = assay: as above; type: cell-based; details: Bacillus cereus, ATCC10702; B. cereus ATCC 10702, agar dilution method
Text: as §2

S. aureus 209 P = assay: as above; type: cell-based; details: Staphylococcus aureus
Text: as §2

K. pnuemoniae PCI 602 = assay: as above; type: cell-based; details: K. pnuemoniae PCI 602, agar dilution method
Text: as §2

Sal. typhi T-63 = assay: as above; type: cell-based; details: Salmonella enterica; Sal. typhi T-63, agar dilution method
Text: as §2

L1210 leukemia cells = assay: Antitumor activity, increase of life span, L1210 leukemia cells in CDF1 mice; type: in vivo; details: intraperitoneal, 10 days
Experimental: To CDF1 mice were intraperitoneally transplanted 1×10^5 L1210 leukemia cells/mouse as a suspension. After the transplantation, each 0.25 ml of a solution containing the test compound was intraperitoneally injected for 10 days, beginning on the day of transplantation. […] The increase of life span (%) compared with the control group consisting of mice administered with physiological saline solution instead of the test compound was calculated from the following equation: [formula]

L1210 cells [4] = assay: Cytotoxicity, DNA synthesis in L1210 cells; type: cell-based; details: Mus musculus, read-out: ID50, DNA synthesis
Text: as §1

L1210 cells [5] = assay: Cytotoxicity, growth of L1210 cells; type: cell-based; details: Mus musculus, read-out: ID50, growth
Text: as §1

Solubility = type: physicochemical

For `CCC1(O)CC(OC2CC(N(C)C)C(OC3CC4OC5CC(=O)C(C)OC5OC4C(C)O3)C(C)O2)c2c(O)c3c(c(O)c2C1OC1CC(N(C)C)C(OC2CCC(OC4C=CC(=O)C(C)O4)C(C)O2)C(C)O1)C(=O)c1cccc(O)c1C3=O` (stereo not drawn) [Ditrisarubicin C], the IC50 (L1210 cells [1]) was 3.2 mg/L (≈ 2.75 µM), the IC50 (L1210 cells [2]) was 0.014 mg/L (≈ 0.012 µM) and the MIC (Coryn. bovis 1810) was < 0.2 mg/L. For the same molecule, the MIC [3] was < 0.2 mg/L, the MIC (E. coli NIHJ) was > 50 mg/L and the MIC (S. aureus MS9610) was < 0.2 mg/L. It also gave an MIC (B. subtilis PCI 219) of 0.39 mg/L (≈ 0.335 µM), an MIC (S. aureus Smith) of 0.39 mg/L (≈ 0.335 µM) and an MIC (Pseu. aeruginosa A3) of 25 mg/L (≈ 21.5 µM). The MIC (S. aureus MS8710) was < 0.2 mg/L, the MIC (Prot. vulgaris OX19) was 50 mg/L (≈ 42.9 µM) and the MIC (Serr. marcessens) was 50 mg/L (≈ 42.9 µM). The MIC (B. cereus ATCC 10702) was 0.39 mg/L (≈ 0.335 µM), the MIC (S. aureus 209 P) was < 0.2 mg/L and the MIC (K. pnuemoniae PCI 602) was > 50 mg/L. The MIC (Sal. typhi T-63) was > 50 mg/L, the “Increase of life span” value (L1210 leukemia cells; 0.016 mg/kg/day) was 142% and the “Increase of life span” value (L1210 leukemia cells; 0.031 mg/kg/day) was 182%. The “Increase of life span” value (L1210 leukemia cells; 0.063 mg/kg/day) was 142%, the “Increase of life span” value (L1210 leukemia cells; 0.125 mg/kg/day) was 148% and the “Increase of life span” value (L1210 leukemia cells; 0.25 mg/kg/day) was 114%. For the same molecule, the IC50 (L1210 cells [4]) was 0.14 mg/L (≈ 0.12 µM), the IC50 (L1210 cells [5]) was 0.0007 mg/L (≈ 0.000601 µM) and the “Solubility in methanol, acetone, ethyl acetate, chloroform, acetonitrile and DMSO” value (from here on “Solubility in methanol, acetone”) (Solubility) was “soluble”. For the same molecule, the “Solubility in water, n-hexane and petroleum ether” value (“Solubility in water” below) (Solubility) was “sparingly soluble”.
`CCC1(O)CC(OC2CC(N(C)C)C(OC3CC4OC5CC(=O)C(C)OC5OC4C(C)O3)C(C)O2)c2c(O)c3c(c(O)c2C1OC1CC(N(C)C)C(OC2CC(O)C(OC4CCC(=O)C(C)O4)C(C)O2)C(C)O1)C(=O)c1cccc(O)c1C3=O` (stereo not drawn) [Ditrisarubicin A] gave an IC50 (L1210 cells [1]) of 8.5 mg/L (≈ 7.18 µM), an IC50 (L1210 cells [2]) of 0.023 mg/L (≈ 0.0194 µM) and an MIC (Coryn. bovis 1810) of 0.78 mg/L (≈ 0.659 µM). For the same molecule, the MIC [3] was < 0.2 mg/L, the MIC (E. coli NIHJ) was 50 mg/L (≈ 42.3 µM) and the MIC (S. aureus MS9610) was 0.39 mg/L (≈ 0.33 µM). The MIC (B. subtilis PCI 219) was < 0.2 mg/L, the MIC (S. aureus Smith) was 0.39 mg/L (≈ 0.33 µM) and the MIC (Pseu. aeruginosa A3) was 12.5 mg/L (≈ 10.6 µM). The MIC (S. aureus MS8710) was < 0.2 mg/L, the MIC (Prot. vulgaris OX19) was 50 mg/L (≈ 42.3 µM) and the MIC (Serr. marcessens) was 50 mg/L (≈ 42.3 µM). For the same molecule, the MIC (B. cereus ATCC 10702) was 0.39 mg/L (≈ 0.33 µM), the MIC (S. aureus 209 P) was < 0.2 mg/L and the MIC (K. pnuemoniae PCI 602) was 50 mg/L (≈ 42.3 µM). For the same molecule, the MIC (Sal. typhi T-63) was 50 mg/L (≈ 42.3 µM), the “Increase of life span” value (L1210 leukemia cells; 0.016 mg/kg/day) was 136% and the “Increase of life span” value (L1210 leukemia cells; 0.031 mg/kg/day) was 148%. The “Increase of life span” value (L1210 leukemia cells; 0.063 mg/kg/day) was 148%, the “Increase of life span” value (L1210 leukemia cells; 0.125 mg/kg/day) was 119% and the “Increase of life span” value (L1210 leukemia cells; 0.25 mg/kg/day) was 91%. The IC50 (L1210 cells [4]) was 0.31 mg/L (≈ 0.262 µM), the IC50 (L1210 cells [5]) was 0.0005 mg/L (≈ 0.000423 µM) and the “Solubility in methanol, acetone” value (Solubility) was “soluble”. For the same molecule, the “Solubility in water” value (Solubility) was “sparingly soluble”.
With `CCC1(O)CC(OC2CC(N(C)C)C(OC3CC4OC5CC(=O)C(C)OC5OC4C(C)O3)C(C)O2)c2c(O)c3c(c(O)c2C1OC1CC(N(C)C)C(OC2CC4OC5CC(=O)C(C)OC5OC4C(C)O2)C(C)O1)C(=O)c1cccc(O)c1C3=O` (stereo not drawn) [Ditrisarubicin B] the inhibition at 10 µg/mL (L1210 cells [1]; with 10 γ/ml) was 23.3%, the IC50 (L1210 cells [2]) was 0.029 mg/L (≈ 0.0245 µM) and the MIC (Coryn. bovis 1810) was < 0.2 mg/L. The MIC [3] was < 0.2 mg/L, the MIC (E. coli NIHJ) was > 50 mg/L and the MIC (S. aureus MS9610) was 0.39 mg/L (≈ 0.33 µM). For the same molecule, the MIC (B. subtilis PCI 219) was 0.39 mg/L (≈ 0.33 µM), the MIC (S. aureus Smith) was 0.78 mg/L (≈ 0.66 µM) and the MIC (Pseu. aeruginosa A3) was 25 mg/L (≈ 21.2 µM). The MIC (S. aureus MS8710) was 0.39 mg/L (≈ 0.33 µM), the MIC (Prot. vulgaris OX19) was 50 mg/L (≈ 42.3 µM) and the MIC (Serr. marcessens) was 50 mg/L (≈ 42.3 µM). For the same molecule, the MIC (B. cereus ATCC 10702) was 0.39 mg/L (≈ 0.33 µM), the MIC (S. aureus 209 P) was < 0.2 mg/L and the MIC (K. pnuemoniae PCI 602) was 50 mg/L (≈ 42.3 µM). For the same molecule, the MIC (Sal. typhi T-63) was > 50 mg/L, the “Increase of life span” value (L1210 leukemia cells; 0.016 mg/kg/day) was 114% and the “Increase of life span” value (L1210 leukemia cells; 0.031 mg/kg/day) was 136%. The “Increase of life span” value (L1210 leukemia cells; 0.063 mg/kg/day) was 148%, the “Increase of life span” value (L1210 leukemia cells; 0.125 mg/kg/day) was 159% and the “Increase of life span” value (L1210 leukemia cells; 0.25 mg/kg/day) was 108%. For the same molecule, the IC50 (L1210 cells [4]) was 0.29 mg/L (≈ 0.245 µM), the IC50 (L1210 cells [5]) was 0.0011 mg/L (≈ 0.000931 µM) and the “Solubility in methanol, acetone” value (Solubility) was “soluble”. For the same molecule, the “Solubility in water” value (Solubility) was “sparingly soluble”.
